Reference: US20110190389A1, “OXYLIPINS FROM LONG CHAIN POLYUNSATURATED FATTY ACIDS AND METHODS OF MAKING AND USING THE SAME” (priority 2007, published 2011)

Key:
hind paw edema = assay: Carrageenan-induced rat paw edema after feeding LCPUFA diets; type: in vivo, Sprague Dawley rats; conditions: diet 4 weeks, 1% carrageenan, 3 hours post-injection, Day 28
Description: Adult, male, Sprague Dawley rats (n=10/treatment group) were fed modified AlN-76 diets formulated to include 1.2% DHA, 1.2% DHA+0.44% DPAn-6, or 1.2% DHA+0.46% arachidonic acid (ARA) for 4 weeks. Carrageenan (1%) was used to induce hind paw edema on Day 14 (left paw) and Day 28 (right paw) of feeding. Edema was measured plethysmographically using water displacement 3 hours post-injection. Similar results were obtained on day 14. *p≦0.05.

[1] = system: inflammatory cytokine production; assay: Consumption of LCPUFA oils: inflammatory cytokine and eicosanoid production; type: in vivo; conditions: consumption of the oil; DHA dose approximately three times higher in DHA-alone oil
Soybean 15-lipoxygenase = molecular target: T1, Soybean 15-lipoxygenase (Glycine max, UniProt P08170); assay: 15-lipoxygenase reaction with fatty acid substrates (conversion to conjugated diene); type: biochemical; conditions: 100 μM fatty acid, 4 μg/ml enzyme, 0.05 M sodium borate pH 9.0, 0° C, absorbance 238 nm
T1 construct: purchased Sigma-Aldrich
T1 sequence (P08170 1-839): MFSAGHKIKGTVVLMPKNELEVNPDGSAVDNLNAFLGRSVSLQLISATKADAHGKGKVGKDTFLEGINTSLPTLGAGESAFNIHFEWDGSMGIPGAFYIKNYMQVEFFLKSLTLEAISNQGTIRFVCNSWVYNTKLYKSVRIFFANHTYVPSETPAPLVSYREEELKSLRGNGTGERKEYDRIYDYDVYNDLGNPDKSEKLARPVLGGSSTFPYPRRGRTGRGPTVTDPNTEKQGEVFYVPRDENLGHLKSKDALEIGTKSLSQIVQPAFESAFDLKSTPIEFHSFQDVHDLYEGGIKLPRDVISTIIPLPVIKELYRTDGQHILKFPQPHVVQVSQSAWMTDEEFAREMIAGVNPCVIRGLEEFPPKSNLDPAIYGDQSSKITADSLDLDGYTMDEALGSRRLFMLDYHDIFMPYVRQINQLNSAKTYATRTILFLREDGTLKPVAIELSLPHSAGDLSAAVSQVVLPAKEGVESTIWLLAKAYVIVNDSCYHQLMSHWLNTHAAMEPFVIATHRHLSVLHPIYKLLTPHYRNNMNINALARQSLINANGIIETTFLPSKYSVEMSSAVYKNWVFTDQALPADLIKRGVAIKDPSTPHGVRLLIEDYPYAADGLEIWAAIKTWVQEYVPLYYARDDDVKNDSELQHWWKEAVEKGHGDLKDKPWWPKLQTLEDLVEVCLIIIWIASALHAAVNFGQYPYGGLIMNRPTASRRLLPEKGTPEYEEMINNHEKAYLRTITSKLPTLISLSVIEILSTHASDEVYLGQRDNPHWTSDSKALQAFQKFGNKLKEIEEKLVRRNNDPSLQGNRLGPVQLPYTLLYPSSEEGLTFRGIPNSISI
Description: Soybean 15-lipoxygenase (Sigma-Aldrich, St. Louis, Mo.) at a final concentration of 4 μg/ml was mixed into 100 μM solutions of DHA, DPAn-6, or DPAn-3 (NuChek Prep, Elysian, Minn.) in 0.05 M sodium borate buffer, pH 9.0, and the reaction mixtures were incubated at 0° C. Appearance of the mono-hydroxy conjugated diene derivatives of the fatty acids was monitored through absorbance at 238 nm. Conjugated diene products were quantified using an extinction coefficient of 28,000 M^−1 cm^−1 (Shimizu et al; Methods in Enzymology, 1990 Vol 187, 296-306). As shown in Example. 1, 100% of the DPAn-6 was efficiently converted to its conjugated diene derivative under these conditions, whereas about 85% of DPAn-3 and 50% of DHA were converted to their respective conjugated diene (mono-hydroxy) derivative by the 15-lipoxygenase. No appreciable accumulation of the dihydroxy derivatives occurred under these reaction conditions.

[2] = system: total cell migration into air pouch exudates; assay: Mouse dorsal air pouch model: total cell migration into exudates; type: in vivo, C57/B16 mice; conditions: 100 ng docosanoid intra-pouch; for total number of cells in the pouch: 100 ng TNFα, 4 hours
From the text: (§1) Pure 17R-hydroxy DHA (17R-HDHA) was purchased from Caymen Chemicals (Ann Arbor, Mich.). Docosanoids 17-hydroxy-DPAn-6 (17-HDPAn-6) and 10,17-dihydroxyDPAn-6 (10,17-HDPAn-6) were synthesized biogenically from DPAn-6 (NuChek Prep, Elysian, Minn.) using soybean 15-lipoxygenase (Sigma-Aldrich) and purified by HPLC as described in Example 2. Organic solvents were evaporated and the compounds were re-dissolved in phosphate buffered saline (PBS), filter sterilized and concentrations were adjusted to 1000 ng/ml using molar extinction coefficients of 28,000 and 40,000 M^−1 cm^−1 for the mono- and dihydroxy docosanoids, respectively. Female C57/B16 mice (n=10 mice per group) were injected with sterile air subcutaneously in the back to initiate dorsal air pouches. Six days later, 0.9 ml sterile PBS followed by 100 ng docosanoid in 0.1 ml PBS or PBS alone were administered by intra-pouch injection. This injection was followed within 5 min by intra-pouch injection of 100 ng of mouse recombinant TNFα (Peprotech, Inc, NJ, USA) in 0.1 ml PBS. Control animals received no TNFα. As a positive control, 2 mg/kg indomethacin (Calbiochem, San Diego, Calif.) was administered intraperitoneally 30 min prior to administration of TNFα. Four hours after TNFα administration, air pouch exudates were removed and cells were stained with Turk's solution and counted. Exudates were frozen for later cytokine analyses using commercial ELISA kits. Bars represent group (n=10) means (±stdev). Groups were compared using Student's t test, with p values indicated.

human T lymphocytes = assay: TNFα secretion by human T lymphocytes stimulated with anti-CD3/anti-CD28 antibodies; type: cell-based; conditions: 6 hrs pretreatment, 41 hrs on anti-CD3/anti-CD28; difference p=0.037 at 10 nM
Description: FIG. 22A: Effect of Docosanoids on TNFα Secretion by Human T Lymphocytes. The assay was performed essentially as described in Ariel et al, 2005. Briefly, human peripheral blood mononuclear cells were isolated from venous blood by Ficoll-Paque™ Plus (Amersham biosciences) gradient. T lymphocytes were isolated using a human T cell enrichment column (R&D Systems) per manufacturer's instructions. Purified T cells were treated with 10,17-dihydroxy DPAn-6 or 10,17-dihydroxy DHA or vehicle (0.05% ethanol) in RPMI-1640 media containing 10% heat inactivated fetal bovine serum for 6 hrs at 37° C. Lymphocytes (200,000 cells in 200 μl media per well) were then transferred to 96-well plates coated with both anti-CD3 antibody and anti-CD28 antibody (100 μl of 2 μg/ml of each antibody overnight to coat wells) and incubated for 41 hrs. TNFα concentrations were determined in cell supernatants by ELISA (R&D Systems). Group means±stdev (n=4) were compared by Student's t test. *p<0.05 and **p<0.01 compared to control; # indicates statistical difference (p=0.037) between the groups treated with 10,17-dihydroxy DPAn-6 and 10,17-dihydroxy DHA at the 10 nM concentrations.

[3] = system: macrophage chemotactic protein-1 (MCP-1); assay: Mouse dorsal air pouch model: MCP-1 in exudates; type: in vivo, C57/B16 mice; conditions: 100 ng docosanoid intra-pouch; for secretion of MCP-1 in air pouch exudates: 100 ng TNFα, 4 hours; for inhibition of MCP-1 secretion versus indomethacin: indomethacin 2 mg/kg i.p.
From the text: as §1

IL-1β = assay: Mouse dorsal air pouch model: IL-1β in exudates; type: in vivo, C57/B16 mice; conditions: 100 ng docosanoid intra-pouch; for secretion of IL-1β in air pouch exudates: 100 ng TNFα, 4 hours
From the text: as §1

CCCCC/C=C\C/C=C\C/C=C\C/C=C\CCCC(=O)O [ARA, arachidonic acid]
edema volume (hind paw edema): reversed the anti-inflammatory activity of DHA

CC/C=C\C/C=C\C/C=C\C/C=C\C/C=C\C/C=C\CCC(=O)O [DHA, docosahexaenoic acid, reference compound]
reduction in inflammatory cytokine production [1]: 13-29%

CC/C=C\C/C=C\C/C=C\C/C=C\C/C=C\CCCCCC(=O)O [DPAn-3, docosapentaenoic acid (C22:5n-3)]
converted to conjugated diene (mono-hydroxy) derivative by the 15-lipoxygenase (Soybean 15-lipoxygenase): about 85%

10,17-dihydroxy DPAn-6
total number of cells in the pouch [2]: significant reductions
reducing TNFα secretion by T lymphocytes, versus DHA analog (human T lymphocytes): more potent than the DHA analog
secretion of MCP-1 in air pouch exudates [3]: significant reductions
inhibition of MCP-1 secretion versus indomethacin [3]: larger inhibition of MCP-1 secretion than indomethacin
secretion of IL-1β in air pouch exudates (IL-1β): significant reductions
reduction of IL-1β versus comparators (IL-1β; indomethacin 2 mg/kg i.p.): significantly larger than with that produced by either the DHA oxylipin derivative or indomethacin

CCCCCC(O)/C=C/C=C\C/C=C\C/C=C\C/C=C\CCC(=O)O (centres unmarked) [17-hydroxy DPAn-6]
total number of cells in the pouch [2]: significant reductions
potency in reducing cell infiltration versus comparators ([2]; indomethacin 2 mg/kg i.p.): more potent than both 17R-hydroxy DHA and indomethacin
secretion of MCP-1 in air pouch exudates [3]: significant reductions
inhibition of MCP-1 secretion versus indomethacin [3]: larger inhibition of MCP-1 secretion than indomethacin
secretion of IL-1β in air pouch exudates (IL-1β): significant reductions
